Test results from article PMC4076524 (The Journal of General Physiology, 2014).
Where a chain is given by its changes, count along the chain named.

Tests used:
[1] = biological target: MlotiK1 CNB domain wild type (Mesorhizobium japonicum, UniProt Q98GN8); assay: 8-NBD cAMP fluorescence binding/competition assay; set-up: species or system Mesorhizobium loti
[2] = biological target: T1, MlotiK1 CNB domain T284S/V288S/A352D mutant (Mesorhizobium japonicum, UniProt Q98GN8, A352D/T284S/V288S); assay: 8-NBD cAMP fluorescence binding/competition assay; set-up: species or system Mesorhizobium loti; details: for coupling energy for the combination of T284S with V288S/A352D: mutant cycle analysis of ligand binding
T1 sequence (Q98GN8 211-355 T284S/V288S/A352D limits assumed): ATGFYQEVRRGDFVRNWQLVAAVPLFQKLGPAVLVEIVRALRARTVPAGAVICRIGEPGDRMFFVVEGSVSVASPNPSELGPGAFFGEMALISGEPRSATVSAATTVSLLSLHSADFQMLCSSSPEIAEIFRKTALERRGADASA

[3] = biological target: T2, MlotiK1 CNB domain V288S/A352D mutant (Mesorhizobium japonicum, UniProt Q98GN8, A352D/V288S); assay: 8-NBD cAMP fluorescence competition binding assay; set-up: species or system Mesorhizobium loti; details: for coupling energy between V288S and A352D: double mutant cycle analysis of ligand binding
T2 sequence (Q98GN8 211-355 V288S/A352D limits assumed): T1 sequence (Q98GN8 211-355 T284S/V288S/A352D limits assumed) with S74T

[4] = system: olfactory CNG channel, threonine at C-terminal end of PBC mutated to alanine; details: threonine to alanine mutant; ref Altenhofen et al., 1991; cited from earlier work
[5] = biological target: T284S/V288S/A352D MlotiK1 potassium channel (Mesorhizobium japonicum, UniProt Q98GN8, A352D/T284S/V288S); assay: 86Rb+ uptake assay in proteoliposomes; assay type: biochemical, Mesorhizobium loti; details: Hill fit
[6] = biological target: MlotiK1 CNB domain T284S mutant (Mesorhizobium japonicum, UniProt Q98GN8, T284S); assay: 8-NBD cAMP fluorescence competition binding assay; set-up: species or system Mesorhizobium loti
[7] = biological target: MlotiK1 CNB domain R348Q mutant (Mesorhizobium japonicum, UniProt Q98GN8, R348Q); assay: 8-NBD cAMP fluorescence competition binding assay; set-up: species or system Mesorhizobium loti; details: affinities (Kd), range stated over R348N, R348Q and R348K for cAMP and cGMP
[8] = biological target: MlotiK1 CNB domain M299C mutant (Mesorhizobium japonicum, UniProt Q98GN8, M299C); assay: 8-NBD cAMP fluorescence competition binding assay; set-up: species or system Mesorhizobium loti
[9] = biological target: MlotiK1 CNB domain V288L mutant (Mesorhizobium japonicum, UniProt Q98GN8, V288L); assay: 8-NBD cAMP fluorescence competition binding assay; set-up: species or system Mesorhizobium loti
[10] = biological target: MlotiK1 CNB domain R348N mutant (Mesorhizobium japonicum, UniProt Q98GN8, R348N); assay: 8-NBD cAMP fluorescence competition binding assay; set-up: species or system Mesorhizobium loti; details: affinities (Kd), range stated over R348N, R348Q and R348K for cAMP and cGMP
[11] = biological target: MlotiK1 CNB domain R348Y mutant (Mesorhizobium japonicum, UniProt Q98GN8, R348Y); assay: 8-NBD cAMP fluorescence competition binding assay; set-up: species or system Mesorhizobium loti; details: modified titration
[12] = biological target: MlotiK1 CNB domain R348K mutant (Mesorhizobium japonicum, UniProt Q98GN8, R348K); assay: 8-NBD cAMP fluorescence competition binding assay; set-up: species or system Mesorhizobium loti; details: affinities (Kd), range stated over R348N, R348Q and R348K for cAMP and cGMP
[13] = biological target: MlotiK1 CNB domain T284Q mutant (Mesorhizobium japonicum, UniProt Q98GN8, T284Q); assay: 8-NBD cAMP fluorescence competition binding assay; set-up: species or system Mesorhizobium loti
[14] = biological target: MlotiK1 CNB domain V288I mutant (Mesorhizobium japonicum, UniProt Q98GN8, V288I); assay: 8-NBD cAMP fluorescence competition binding assay; set-up: species or system Mesorhizobium loti
[15] = biological target: MlotiK1 CNB domain A352D mutant (Mesorhizobium japonicum, UniProt Q98GN8, A352D); assay: 8-NBD cAMP fluorescence competition binding assay; set-up: species or system Mesorhizobium loti
[16] = system: CNB β domain from the cGMP-dependent protein kinase I; details: ref Huang et al., 2014; cited from earlier work
[17] = biological target: MlotiK1 CNB domain T284N mutant (Mesorhizobium japonicum, UniProt Q98GN8, T284N); assay: 8-NBD cAMP fluorescence competition binding assay; set-up: species or system Mesorhizobium loti
[18] = system: bovine olfactory CNG channel; details: ref Altenhofen et al., 1991; cited from earlier work
[19] = biological target: MlotiK1 CNB domain A352S mutant (Mesorhizobium japonicum, UniProt Q98GN8, A352S); assay: 8-NBD cAMP fluorescence competition binding assay; set-up: species or system Mesorhizobium loti; details: competition with 50 nM 8-NBD cAMP, constant ligand, variable protein, room temperature, pH 7.5
[20] = biological target: MlotiK1 CNB domain V282L mutant (Mesorhizobium japonicum, UniProt Q98GN8, V282L); assay: 8-NBD cAMP fluorescence competition binding assay; set-up: species or system Mesorhizobium loti
[21] = biological target: MlotiK1 CNB domain M299Q mutant (Mesorhizobium japonicum, UniProt Q98GN8, M299Q); assay: 8-NBD cAMP fluorescence competition binding assay; set-up: species or system Mesorhizobium loti
[22] = system: bovine rod photoreceptor CNG channel; details: ref Altenhofen et al., 1991; cited from earlier work
[23] = biological target: MlotiK1 CNB domain V288S mutant (Mesorhizobium japonicum, UniProt Q98GN8, V288S); assay: 8-NBD cAMP fluorescence competition binding assay; set-up: species or system Mesorhizobium loti
[24] = biological target: MlotiK1 CNB domain V288A mutant (Mesorhizobium japonicum, UniProt Q98GN8, V288A); assay: 8-NBD cAMP fluorescence competition binding assay; set-up: species or system Mesorhizobium loti
[25] = biological target: MlotiK1 CNB domain V288S/A352S mutant (Mesorhizobium japonicum, UniProt Q98GN8, A352S/V288S); assay: 8-NBD cAMP fluorescence competition binding assay; set-up: species or system Mesorhizobium loti
[26] = biological target: MlotiK1 CNB domain R348A mutant (Mesorhizobium japonicum, UniProt Q98GN8, R348A); assay: 8-NBD cAMP fluorescence competition binding assay; set-up: species or system Mesorhizobium loti; details: modified titration
MlotiK1 CNB domain R348A mutant, sequence (Q98GN8 211-355 R348A limits assumed): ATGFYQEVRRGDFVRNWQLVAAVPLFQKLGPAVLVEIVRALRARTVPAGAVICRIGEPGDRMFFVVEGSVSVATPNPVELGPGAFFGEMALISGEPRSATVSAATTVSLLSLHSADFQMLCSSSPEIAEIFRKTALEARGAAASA

MlotiK1 CNB domain V288S mutant, sequence (Q98GN8 211-355 V288S limits assumed): as the sequence (Q98GN8 211-355 R348A limits assumed) above, with V78S, A138R counted along it
T284S/V288S/A352D MlotiK1 potassium channel, sequence (Q98GN8 whole entry T284S/V288S/A352D, the tested form may be a part): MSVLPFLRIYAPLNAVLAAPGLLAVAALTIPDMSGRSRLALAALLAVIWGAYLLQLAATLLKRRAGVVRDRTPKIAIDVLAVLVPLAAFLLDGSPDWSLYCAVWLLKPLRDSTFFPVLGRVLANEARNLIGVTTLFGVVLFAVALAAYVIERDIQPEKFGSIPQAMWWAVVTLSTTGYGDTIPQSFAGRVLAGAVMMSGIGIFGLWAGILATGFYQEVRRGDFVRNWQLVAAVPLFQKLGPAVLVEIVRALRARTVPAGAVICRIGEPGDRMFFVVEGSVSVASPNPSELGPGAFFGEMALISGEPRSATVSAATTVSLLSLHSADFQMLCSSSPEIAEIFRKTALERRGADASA
MlotiK1 CNB domain wild type, sequence (Q98GN8 211-355 limits assumed): as the sequence (Q98GN8 211-355 R348A limits assumed) above, with A138R counted along it
MlotiK1 CNB domain R348K mutant, sequence (Q98GN8 211-355 R348K limits assumed): as the sequence (Q98GN8 211-355 R348A limits assumed) above, with A138K counted along it
MlotiK1 CNB domain V282L mutant, sequence (Q98GN8 211-355 V282L limits assumed): as the sequence (Q98GN8 211-355 R348A limits assumed) above, with V72L, A138R counted along it
MlotiK1 CNB domain M299C mutant, sequence (Q98GN8 211-355 M299C limits assumed): as the sequence (Q98GN8 211-355 R348A limits assumed) above, with M89C, A138R counted along it
MlotiK1 CNB domain T284N mutant, sequence (Q98GN8 211-355 T284N limits assumed): as the sequence (Q98GN8 211-355 R348A limits assumed) above, with T74N, A138R counted along it
MlotiK1 CNB domain A352D mutant, sequence (Q98GN8 211-355 A352D limits assumed): as the sequence (Q98GN8 211-355 R348A limits assumed) above, with A138R, A142D counted along it
MlotiK1 CNB domain V288S/A352S mutant, sequence (Q98GN8 211-355 V288S/A352S limits assumed): as the sequence (Q98GN8 211-355 R348A limits assumed) above, with V78S, A138R, A142S counted along it
MlotiK1 CNB domain V288L mutant, sequence (Q98GN8 211-355 V288L limits assumed): as the sequence (Q98GN8 211-355 R348A limits assumed) above, with V78L, A138R counted along it
MlotiK1 CNB domain T284Q mutant, sequence (Q98GN8 211-355 T284Q limits assumed): as the sequence (Q98GN8 211-355 R348A limits assumed) above, with T74Q, A138R counted along it
MlotiK1 CNB domain T284S mutant, sequence (Q98GN8 211-355 T284S limits assumed): as the sequence (Q98GN8 211-355 R348A limits assumed) above, with T74S, A138R counted along it
MlotiK1 CNB domain M299Q mutant, sequence (Q98GN8 211-355 M299Q limits assumed): as the sequence (Q98GN8 211-355 R348A limits assumed) above, with M89Q, A138R counted along it
MlotiK1 CNB domain A352S mutant, sequence (Q98GN8 211-355 A352S limits assumed): as the sequence (Q98GN8 211-355 R348A limits assumed) above, with A138R, A142S counted along it
MlotiK1 CNB domain R348Q mutant, sequence (Q98GN8 211-355 R348Q limits assumed): as the sequence (Q98GN8 211-355 R348A limits assumed) above, with A138Q counted along it
MlotiK1 CNB domain R348Y mutant, sequence (Q98GN8 211-355 R348Y limits assumed): as the sequence (Q98GN8 211-355 R348A limits assumed) above, with A138Y counted along it
MlotiK1 CNB domain R348N mutant, sequence (Q98GN8 211-355 R348N limits assumed): as the sequence (Q98GN8 211-355 R348A limits assumed) above, with A138N counted along it
MlotiK1 CNB domain V288I mutant, sequence (Q98GN8 211-355 V288I limits assumed): as the sequence (Q98GN8 211-355 R348A limits assumed) above, with V78I, A138R counted along it
MlotiK1 CNB domain V288A mutant, sequence (Q98GN8 211-355 V288A limits assumed): as the sequence (Q98GN8 211-355 R348A limits assumed) above, with V78A, A138R counted along it

Q: With `Nc1ncnc2c1nc(SCCNc1ccc([N+](=O)[O-])c3nonc13)n2[C@@H]1O[C@@H]2COP(=O)(O)O[C@H]2[C@H]1O` [8-NBD cAMP] as the compound, how does the Kd [1] read?
A: Its Kd is 171 ± 20 nM.

Q: What about the Kd [2] of the same compound?
A: Its Kd is 2000 nM.

Q: With `Nc1ncnc2c1ncn2[C@@H]1O[C@@H]2COP(=O)(O)O[C@H]2[C@H]1O` [cAMP] as the compound, how does the “coupling energy for the combination of T284S with V288S/A352D” value [2] read?
A: Its value is 0.14 ± 0.19 kcal/mol.

Q: And the “coupling energy between V288S and A352D” value [3]?
A: The value was -0.78 ± 0.18 kcal/mol.

Q: What about the “preference for cAMP” value [4] of the same compound?
A: Its value is 3.3 fold.

Q: And the Hill coefficient [5]?
A: Its Hill coefficient is 0.84.

Q: What does the source list for `Nc1nc2c(ncn2[C@@H]2O[C@@H]3COP(=O)(O)O[C@H]3[C@H]2O)c(=O)[nH]1` [cGMP]?
A: Kd [6]: 2980 nM; Kd [7]: 16000 to 46000 nM; Kd [8]: 2940 nM; Kd [9]: 996 ± 163 nM; Kd [10]: 16000 to 46000 nM; Kd [11]: 33000 ± 4800 nM; Kd [12]: 16000 to 46000 nM; Kd [13]: 6950 nM; Kd [1]: 1730 nM; Kd [14]: 797 ± 118 nM; Kd [15]: 850 ± 121 nM; selectivity for cGMP over cAMP [16]: ~250 times; Kd [2]: 336 ± 126 nM; coupling energy for the combination of T284S with V288S/A352D [2]: -0.34 ± 0.29 kcal/mol; Kd [17]: 6560 nM; sensitivity to cGMP relative to cAMP (ratio of the K1/2 for channel activation) [18]: ~40 times; Kd [19]: 727 ± 160 nM; Kd [3]: 351 ± 95 nM; coupling energy between V288S and A352D [3]: -0.64 ± 0.20 kcal/mol; change in ligand-binding energy by V288S when combined with A352D ([3]; mutant cycle, relative to A352D): -0.52 ± 0.18 kcal/mol; Kd [20]: 8950 nM; Kd [21]: 11600 nM; sensitivity to cGMP relative to cAMP (ratio of the K1/2 for channel activation) [22]: ~40 times; Kd [23]: 2100 nM; change in ligand-binding energy by V288S alone ([23]; mutant cycle, relative to wild type): 0.12 ± 0.10 kcal/mol; Kd [24]: 2540 nM; Kd [25]: 749 ± 75 nM; Hill coefficient [5]: 1.3; Kd [26]: 39000 ± 2500 nM
